Laboratory results reported in US20060216327A1, “Multilayer coating for releasing biologically-active agents and method of making” (Bacterin, Inc., priority 2005, published 2006).

Test: Bupivacaine elution profile from coated stents of Example 4 in PBS flow chamber (HPLC)
Type: physicochemical
Details: coated stent of Example 4 (calcium phosphate base layer + PVA polymer layer), 10 ml PBS per day
Procedure: An elution analysis was performed to assay release of bupivacaine over time from the coated stents of Example 4. An 18 mm long test specimen having a known surface area was cut from one of the coated stents of Example 4 and placed in a flow chamber. For 7 days, the test specimen was bathed with 10 ml per day of a phosphate buffered saline (PBS) solution. Every 24 hours, a 100 μl sample was taken of the 10 ml of PBS effluent collected over the preceding 24 hour period. The amount of bupivacaine in a 10 μl aliquot of the sample was quantified using a reverse-phase high pressure liquid chromatography (HPLC) system including a […] silica column. A solution of 30% acetonitrile and 70% buffered acid (985 ml of HPLC-grade water, 15 ml 1.0 M HCl, and 1.38 grams monobasic NaH2PO4) was employed as the mobile phase for the HPLC analysis. The data from the HPLC analysis was then normalized against the surface area of the test specimen and 10 ml volume of PBS effluent. Each data point represents the amount of bupivacaine eluted into the PBS solution during the proceeding 24-hour period, with each data point expressed in terms of in μg of bupivacaine released per cm^2 of coated stent surface. […]

release of bupivacaine from coated stent into PBS solution (days 1-3, attributed to the polymer layer): relative burst release
release of bupivacaine from coated stent into PBS solution (days 4-7, attributed to erosion of the calcium phosphate base layer): more gradual release
SMILES: CCCCN1CCCCC1C(=O)Nc1c(C)cccc1C (centres unmarked) [bupivacaine]
